Data from patent US9192604B2, “Method of administration and treatment” (GlaxoSmithKline Intellectual Property (No. 2) Limited, priority 2011, dated 2015).
Where two headings read alike, the source gives them in different places.

Assays:
[1] = tested on: merlin negative cell lines; assay: Anchorage-independent growth-death assay, merlin negative cell line panel; format: cell-based; settings: Homo sapiens, ALL5; second anchorage-independent assay; all 5 merlin negative cell lines; read-out: gIC50 values
Description: (§1) Five human mesothelioma cell lines and two additional human lung cancer cell lines available from the ATCC were used in these studies. Cells were grown in RPMI1640 media containing 10% FBS, 1% L-glutamine, 1% sodium pyruvate under standard cell culture conditions. The mesothelioma cell lines: NCI-H2052, MSTO-211H, NCI-H28, NCI-H226, NCI-H2452, and additional lung lines: A549 and SW-1573. An additional three mesothelioma cell lines, Mero-41, Mero-82, and Mero-14, were grown under identical conditions.
The cellular response to Compound A was evaluated in an anchorage-independent cell growth assay that quantified the extent of cell growth inhibition and the net change in cell population. The assay was performed in black, clear bottom, untreated 384-well plates (Greiner #781096). […]
(§2) On day 6, the assay was stopped by developing the plates, placing a black sticker on bottom of each plate to block light, adding 25 μL of CTG, and incubating the plates for 20 minutes at room temperature. The plates were scanned using a luminescence protocol on the EnVision (Perkin-Elmer).
(§3) Results were expressed as a percent of the T0 value and plotted against the compound concentration. […] The cellular response was determined by fitting the concentration response curves using a 4-parameter curve fit equation and determining the concentration that inhibited growth by 50% (gIC50). […]

[2] = tested on: patients with mesothelioma; assay: Phase I clinical study, anti-tumor activity (RECIST 1.1, Kaplan-Meier PFS) by merlin status; format: in vivo, human
Excerpt: A multi-part, Phase I study was designed to determine the maximum tolerated dose (MTD), safety, tolerability, pharmacokinetics (PK), pharmacodynamics (PD), and anti-tumor activity of Compound A in patients with advanced solid tumors. Part 1 of the study identified the MTD using a dose escalation procedure, and is described herein. Parts 2-3 are ongoing. Part 2 further explores the safety and tolerability of Compound A at or below the MTD, and Part 3 evaluates the pharmacodynamics of Compound A at doses at and below the MTD. Part 4 was not opened for patient accrual at the time of this summary and will explore the safety, tolerability, pharmacokinetics and clinical activity of Compound A in patients with recurrent glioblastoma multiforme. Part 5 was not opened for patient accrual at the time of this summary and will explore the pharmacokinetics of Compound A over several weeks of administration. Patients with mesothelioma were eligible to participate, e.g, in Part 1, of the study. Patients with mesothelioma were eligible to participate in Parts 1-3 of the study at the time the data below were collected.
Patients 18 years old with advanced solid tumors with histologically or cytologically confirmed diagnosis of a solid tumor malignancy that was not responsive to accepted standard therapies or for which there is no standard or curative therapy were eligible. All patients provided signed informed consent. […] In Parts 2-3 of the study, patients with tumors reported in the literature to overexpress FAK that are not responsive to accepted standard therapies or for which there were no standard or curative therapies were included. Subjects in Part 3 were also required to have solid tumors amenable to biopsy.
Patients with an active gastrointestinal disease known to interfere with the pharmacokinetics of drugs or prior resection of the small intestine were ineligible. Other exclusion criteria included unresolved toxicity>Grade 1 from previous anticancer therapy except alopecia, QTcF interval>450 msecs in males (470 in females) or congenital long QT syndrome, history of acute coronary syndromes, Class II-IV heart failure as defined by the New York Heart Association, symptomatic or untreated brain metastases, primary malignancy of the central nervous system (in Parts 1-3), nursing females, consumption of dietary substances or prohibited medications as defined in the protocol, or any serious and/or unstable pre-existing medical, psychiatric, or other condition that could interfere with subject safety or obtaining informed consent.
Measurements to evaluate safety included weight, heart rate, blood pressure, temperature, clinical laboratory tests, 12-lead ECG, and neurologic and physical evaluation. Adverse events were assessed throughout the study using the CTCAE v4.0, Common Terminology Criteria for Adverse Events (CTCAE) Version 4.0, US Department of Health and Human Services, National Institutes of Health, National Cancer Institute, May 2009.
Disease assessment was performed at screening and every 6 weeks after the start of dosing. Response was recorded as complete response (CR), partial response (PR), stable disease (SD), or progressive disease (PD) according to the RECIST Version 1.1.
To determine if loss of merlin in the current Phase I mesothelioma population was predictive of response to Compound A, merlin levels were assessed in archival tissue (FFPE) collected at screening by immunohistochemistry (IHC), and the result correlated to clinical endpoint of median progression free survival (PFS).
A custom IHC assay was developed by Mosaic laboratories, Inc, employing a rabbit polyclonal antibody (Santa Cruz Biotechnology, Inc, catalog # SC332) using a dilution of 1:1600. The antibody signal was evaluated by Envision+rabbit HRP (DAKO) detection kit, and the staining intensity (Grade 0-3+) was used to categorize merlin status (merlin positive=wildtype or merlin negative=loss of merlin) of the clinical samples tested. […]

NCI-H226 cells = assay: Anchorage-independent growth-death assay (methylcellulose, CellTiter-Glo, 6 days); format: cell-based, human; settings: second anchorage-independent assay, NCI-H226, merlin negative
Description: as §1
(§4) The cellular response to Compound A was evaluated in an anchorage-independent cell growth assay that quantified the extent of cell growth inhibition and the net change in cell population. The assay was performed in black, clear bottom, untreated 384-well plates (Greiner #781096). It is important to use either non-tissue culture treated or Low Attachment plates to prevent cells from adhering to the plate during the assay. In brief, the assay was performed as described below.
(§5) A 1% (weight/volume) stock of methylcellulose solution was prepared by dissolving 5 grams of sterilized methylcellulose (Sigma #M0512) in 495 mL of cell culture medium. Here, RPMI1640 media containing 10% FBS, 1% L-glutamine, 1% sodium pyruvate was added to the cooled methylcellulose that had been placed in a glass container and autoclaved to sterilize. Media can be substituted if the cells require different cell culture medium for growth. The dissolution often took a day with vigorous stirring at 4° C. maintaining sterile conditions.
(§6) Cells were plated into a 384 well plate with assay conditions of 0.65% methylcellulose (final concentration) and 1000 cells per well in a final volume of 48 μL. This was achieved by diluting cells harvested from culture and re-suspended in growth medium (dilute to 2.0833×10^4 cells/mL) with the 1% methylcellulose. The cells were mixed by inversion to distribute evenly, bubbles were dispersed and 48 μL was placed into the well with a positive displacement pipette. The plates were placed in a cell culture incubator containing 5% CO2 at 37° C.
(§7) Serial dilution of compound in DMSO was done in a 384 well plate starting with 20 μL of stock compound solution in the first column and 10 μL of DMSO in the other wells. Ten μL from the compound well was transferred into the DMSO containing well, mixed, and the serial dilution was continued with 10 μL transfers across the plate. Then, 4 μL of this DMSO diluted compound was added into wells of a new 384 well plate containing 105 μL of appropriate growth medium. This ‘compound plate’ was used to dose the assay plates containing cells in methylcellulose.
(§8) To initiate the assay, two μL from each well of the ‘compound plate’ were added to individual wells of the ‘assay plates,’ each well containing the 48 μL of cells in methylcellulose. These assay plates were placed in the cell culture incubator for 6 days. One plate was selected at random and developed with Cell TiterGlo (CTG) at the time of compound addition to represent the time equal zero (T0) plate, i.e. to represent the number of cells at the time of compound addition.
as §2
as §3, with “(gIC50). The gIC50 value is the midpoint of the growth window (between T0 and growth of DMSO controls).” for “(gIC50).”

Mero-41 cells = assay: as above; format: cell-based, human; settings: second anchorage-independent assay, Mero-41, merlin negative
Description: as §1, §4, §5, §6, §7, §8, §2
as §3, with “(gIC50). The gIC50 value is the midpoint of the growth window (between T0 and growth of DMSO controls).” for “(gIC50).”

Mero-82 cells = assay: as above; format: cell-based, human; settings: second anchorage-independent assay, Mero-82, merlin negative
Description: as §1, §4, §5, §6, §7, §8, §2
as §3, with “(gIC50). The gIC50 value is the midpoint of the growth window (between T0 and growth of DMSO controls).” for “(gIC50).”

MSTO-211H cells = assay: as above; format: cell-based, human; settings: for IC50: Homo sapiens
Description: as §1, §4, §5, §6, §7, §8, §2
as §3, with “(gIC50). The gIC50 value is the midpoint of the growth window (between T0 and growth of DMSO controls).” for “(gIC50).”

Mero-14 cells = assay: as above; format: cell-based, human; settings: second anchorage-independent assay, Mero-14, merlin negative
Description: as §1, §4, §5, §6, §7, §8, §2
as §3, with “(gIC50). The gIC50 value is the midpoint of the growth window (between T0 and growth of DMSO controls).” for “(gIC50).”

NCI-H2052 cells = assay: as above; format: cell-based, human; settings: for IC50: Homo sapiens, read-out: Growth Inhibition gIC50
Description: as §1, §4, §5, §6, §7, §8, §2
as §3, with “(gIC50). The gIC50 value is the midpoint of the growth window (between T0 and growth of DMSO controls).” for “(gIC50).”

[3] = mesothelioma patients, 26 with radiologic assessments, RECIST 1.1
[4] = Homo sapiens, read-out: Growth Inhibition gIC50
[5] = second anchorage-independent assay, NCI-H2052, merlin negative

For `CONC(=O)c1ccccc1Nc1cc(Nc2cc(C)nn2C(C)C)ncc1Cl` [Compound A, 2-[(5-chloro-2-{[3-methyl-1-(1-methylethyl)-1H-pyrazol-5-yl]amino}-4-pyridinyl)amino]-N-(methyloxy)benzamide], the IC50 [1] was less than 250 nM, the “Overall median progression free survival (PFS)” value ([2]; all mesothelioma patients, 95% CI 9.7, 24.1, Kaplan-Meier) was 17.7 weeks and the “Patients with PD as best response to treatment” value [2, 3] was 9 patients. For the same compound, the “Patients with SD as best response to treatment” value [2, 3] was “fourteen”, the “Patients with non-CR/non-PD as best response to treatment” value [2, 3] was “three” and the “PR or CR; minor responses” value ([2]; mesothelioma patients, RECIST 1.1) was “no patients experienced a PR or CR, minor responses in some patients with mesothelioma were seen”. For the same compound, the “Merlin negative patients remaining on study for more than four months” value ([2]; mesothelioma, merlin negative) was “Seven of 14”, the “Median PFS in merlin negative subjects” value ([2]; mesothelioma, merlin negative, n=14, 95% CI 6.0, 29.3) was 24.1 weeks and the “Merlin positive patients remaining on study for more than four months” value ([2]; mesothelioma, merlin positive) was “three of nine”. For the same compound, the “Median PFS in merlin positive subjects” value ([2]; mesothelioma, merlin positive, n=9, 95% CI 7.3, undefined) was 11.4 weeks, the IC50 (NCI-H226 cells; [4]) was 196 nM and the “Net Population Change Ymin-T0” value (NCI-H226 cells) was −18%. The IC50 (Mero-41 cells; [4]) was 54 nM, the “Net Population Change Ymin-T0” value (Mero-41 cells) was −54% and the IC50 (Mero-82 cells; [4]) was 59 nM. For the same compound, the “Net Population Change Ymin-T0” value (Mero-82 cells) was −22%, the IC50 (MSTO-211H cells; 144 h, initial anchorage-independent assay, MSTO-211H, NF2 wild-type, merlin positive, 6 days, read-out: Growth Inhibition gIC50) was 3590 nM and the IC50 (MSTO-211H cells; second anchorage-independent assay, MSTO-211H, merlin positive, read-out: Growth Inhibition gIC50) was 10900 nM. For the same compound, the IC50 (MSTO-211H cells; second anchorage-independent assay, merlin positive cell line (MSTO-211H), read-out: Concentration required for 50% growth inhibition) was roughly 10000 nM, the “Net Pop. change Ymin-T0” value (MSTO-211H cells; initial anchorage-independent assay, MSTO-211H, NF2 wild-type, 6 days, highest concentration ~30 μM) was 343% and the “Net Population Change Ymin-T0” value (MSTO-211H cells; second anchorage-independent assay, MSTO-211H, merlin positive) was 367%. For the same compound, the IC50 (Mero-14 cells; [4]) was 63 nM, the “Net Population Change Ymin-T0” value (Mero-14 cells) was −55% and the IC50 (NCI-H2052 cells; 144 h, initial anchorage-independent assay, NCI-H2052, NF2 mutant, merlin negative, 6 days) was 186 nM. The IC50 (NCI-H2052 cells; [5]) was 236 nM, the “Net Pop. change Ymin-T0” value (NCI-H2052 cells; initial anchorage-independent assay, NCI-H2052, NF2 mutant, 6 days) was −3% and the “Net Population Change Ymin-T0” value (NCI-H2052 cells; [5]) was 7%.
